Earlier results as cited in PMC3653294 (Bioorganic & medicinal chemistry, 2013).

Tested on: liver fibrosis

SMILES: CCOc1nc2cccc(C(=O)O)c2n1Cc1ccc(-c2ccccc2-c2nnn[nH]2)cc1 [Candesartan]
- effect on liver fibrosis: decreases liver fibrosis
